Measurements taken from patent US4410626A, “Process for the production of 7α-methoxycephalosporin derivatives” (Yamanouchi Pharmaceutical Co. Ltd., priority 1978, dated 1983).
Converted amounts (≈) assume the structure as drawn.

How the values were obtained:
[1] = tested on: Proteus mirabilis; assay: Antibacterial activity, plate disc method (diameter of inhibitory circle), Proteus mirabilis; type: cell-based; set-up: unit not given here; settings: pH 8.0, plate disc method
Text: (§1) 3. The antibacterial activities to Proteus mirabilis and Salmonella gallinarum are as follows:
(§2) Peptone 1%, yeast extract 0.1%, agaragar 1%, pH 8.0, plate disc method,
(§3) the numerical values are the diameters of inhibitory circles.

[2] = tested on: Salmonella gallinarum; assay: Antibacterial activity, plate disc method (diameter of inhibitory circle), Salmonella gallinarum; type: cell-based; settings: pH 8.0, plate disc method
Text: as §1, §2, §3

[3] = tested on: Bacillus subtilis ATCC 6633; assay: Minimum inhibitory concentration, Bacillus subtilis; type: cell-based; settings: ATCC6633
[4] = tested on: Staphylococcus aureus ATCC 6538F; assay: Minimum inhibitory concentration, Staphylococcus aureus; type: cell-based; settings: ATCC6538F
[5] = tested on: Escherichia coli NIHJ; assay: Minimum inhibitory concentration, Escherichia coli; type: cell-based
[6] = tested on: Klebsiella pnuemoniae ATCC 10031; assay: Minimum inhibitory concentration, Klebsiella pnuemoniae; type: cell-based; settings: ATCC10031
[7] = tested on: Salmonella typhi H901W; assay: Minimum inhibitory concentration, Salmonella typhi; type: cell-based; settings: Salmonella enterica, read-out: Minimum inhibitory concentration
[8] = tested on: Salmonella enteritidis 1891; assay: Minimum inhibitory concentration, Salmonella enteritidis; type: cell-based; settings: Salmonella enterica
[9] = tested on: Shigella boydii IID 627; assay: Minimum inhibitory concentration, Shigella boydii; type: cell-based; settings: IID627
[10] = tested on: Proteus mirabilis IMFOM9; assay: Minimum inhibitory concentration, Proteus mirabilis; type: cell-based
[11] = tested on: Proteus vulgaris OXK US; assay: Minimum inhibitory concentration, Proteus vulgaris; type: cell-based
[12] = tested on: Pseudomonas aeruginosa NCTC 10490; assay: Minimum inhibitory concentration, Pseudomonas aeruginosa; type: cell-based; settings: NCTC10490
[13] = Solubility / hygroscopicity of the Na salt (physicochemical properties); settings: for Solubility in methanol, ethanol, ethyl acetate, butyl acetate and other organic solvents: (n-)butanol (not named for compound C)

Structure (SMILES)	diameter of inhibitory circle ([1]; 100 γ/ml)	diameter of inhibitory circle ([1]; 500 γ/ml)	diameter of inhibitory circle ([2]; 100 γ/ml)	diameter of inhibitory circle ([2]; 500 γ/ml)	MIC [3] [µg/mL]	MIC [4] [µg/mL]	MIC [5] [µg/mL]	MIC [6] [µg/mL]	MIC [7] [µg/mL]	MIC [8] [µg/mL]	MIC [9] [µg/mL]	MIC [10] [µg/mL]	MIC [11] [µg/mL]	MIC [12] [µg/mL]	Solubility in methanol, ethanol, ethyl acetate, butyl acetate and other organic solvents ([13]; ethyl acetate, butyl acetate)	Solubility in water [13]	Hygroscopicity [13]	Solubility in ethyl acetate, butyl acetate, n-butanol and other organic solvents ([13]; ethyl acetate, butyl acetate, n-butanol and other organic solvents)	Solubility in methanol and ethanol ([13]; methanol and ethanol)
CO[C@@]1(NC(=O)CCCC(=O)O)C(=O)N2C(C(=O)O)=C(COC(=O)/C=C/c3ccc(OS(=O)(=O)O)cc3)CS[C@@H]21 [Compound (B), 7β-(4-Carboxybutyramido)-7α-methoxy-3-(p-sulfooxycinnamoyloxymethyl)-Δ^3-cephem-4-carboxylic acid]	17.6	27.2	14.2	18.3	100 (≈ 167 µM)	100 (≈ 167 µM)	6.25 (≈ 10.4 µM)	25 (≈ 41.6 µM)	50 (≈ 83.3 µM)	50 (≈ 83.3 µM)	25 (≈ 41.6 µM)	12.5 (≈ 20.8 µM)	6.25 (≈ 10.4 µM)	> 100	scarcely soluble	Easily soluble	–	–	–
CO[C@@]1(NC(=O)CCCC(=O)O)C(=O)N2C(C(=O)O)=C(CSc3nnnn3C)CS[C@@H]21 [Y-G19Z-GG, 7(4-carboxybutyramido)-7-methoxy-3-(1-methyl-1H-tetrazol-5-yl)thio-methylΔ^3cephem-4-carboxylic acid, reference compound]	–	19.0	–	16.0	–	–	–	–	–	–	–	–	–	–	–	–	–	–	–
CO[C@@]1(NC(=O)CCCC(N)C(=O)O)C(=O)N2C(C(=O)O)=C(CSc3nnnn3C)CS[C@@H]21 (some centres unmarked) [Y-G19Z-G, 7(5-amino-5-carboxyvaleramido)-7-methoxy-3-(1-methyl-1H-tetrazol-5-yl)thimethyl-Δ^3cephem-4-carboxylic acid, reference compound]	21.6	27.0	18.5	21.5	–	–	–	–	–	–	–	–	–	–	–	–	–	–	–
COC(=Cc1ccc(O)cc1)C(=O)OCC1=C(C(=O)O)N2C(=O)[C@](NC(=O)CCC[C@@H](N)C(=O)O)(OC)[C@H]2SC1 [Comp. b, reference compound]	–	–	–	–	6.25 (≈ 10.8 µM)	100 (≈ 173 µM)	12.5 (≈ 21.6 µM)	25 (≈ 43.1 µM)	50 (≈ 86.3 µM)	12.5 (≈ 21.6 µM)	50 (≈ 86.3 µM)	6.25 (≈ 10.8 µM)	6.25 (≈ 10.8 µM)	> 100	–	–	–	–	–
COC(=Cc1ccc(OS(=O)(=O)O)cc1)C(=O)OCC1=C(C(=O)O)N2C(=O)[C@](NC(=O)CCC[C@@H](N)C(=O)O)(OC)[C@H]2SC1 [Comp. a, reference compound]	–	–	–	–	50 (≈ 75.8 µM)	> 100	25 (≈ 37.9 µM)	50 (≈ 75.8 µM)	25 (≈ 37.9 µM)	25 (≈ 37.9 µM)	25 (≈ 37.9 µM)	6.25 (≈ 9.47 µM)	1.56 (≈ 2.36 µM)	> 100	–	–	–	–	–
CO[C@@]1(NC(=O)CCC[C@@H](N)C(=O)O)C(=O)N2C(C(=O)O)=C(COC(=O)/C=C/c3ccc(OS(=O)(=O)O)cc3)CS[C@@H]21 [Compound (A), 7β-(D-5-Amino-5-carboxyvaleramido)-7α-methoxy-3-(p-sulfooxycinnamoyloxymethyl)-Δ^3-cephem-4-carboxylic acid]	22.3	28.7	17.0	21.5	12.5 (≈ 19.9 µM)	100 (≈ 159 µM)	6.25 (≈ 9.93 µM)	25 (≈ 39.7 µM)	3.13 (≈ 4.97 µM)	6.25 (≈ 9.93 µM)	6.25 (≈ 9.93 µM)	0.78 (≈ 1.24 µM)	0.39 (≈ 0.619 µM)	> 100	scarcely	Easily soluble	–	–	–
CO[C@@]1(NC(=O)CCC[C@@H](N)C(=O)O)C(=O)N2C(C(=O)O)=C(COC(=O)/C=C/c3ccc(O)cc3)CS[C@@H]21 [Compound (C), 7β-(D-5-amino-5-carboxyvaleramido)-3-(p-hydroxycinnamoyloxymethyl)-7α-methoxy-Δ^3-cephem-4-carboxylic acid]	22.0	27.8	15.1	20.0	3.13 (≈ 5.7 µM)	50 (≈ 91 µM)	3.13 (≈ 5.7 µM)	3.13 (≈ 5.7 µM)	12.5 (≈ 22.7 µM)	1.56 (≈ 2.84 µM)	6.25 (≈ 11.4 µM)	0.78 (≈ 1.42 µM)	0.78 (≈ 1.42 µM)	> 100	scarcely soluble	Easily soluble	–	–	–
CO[C@@]1(NC(=O)CCCC(=O)O)C(=O)N2C(C(=O)O)=C(COC(=O)/C=C/c3ccc(O)cc3)CS[C@@H]21 [Compound (D), 7β-(4-carboxybutyramido)-3-(p-hydroxycinnamoyloxymethyl)-7α-methoxy-Δ^3-cephem-4-carboxylic acid]	18.0	27.7	11.5	16.2	100 (≈ 192 µM)	50 (≈ 96.1 µM)	6.25 (≈ 12 µM)	12.5 (≈ 24 µM)	25 (≈ 48 µM)	25 (≈ 48 µM)	12.5 (≈ 24 µM)	6.25 (≈ 12 µM)	3.13 (≈ 6.01 µM)	> 100	–	Easily soluble	Very hygroscopic	scarcely soluble	slightly soluble
